Test results: US6306897A, “Calanolides for inhibiting BTK” (Parker Hughes Institute, priority 1999, dated 2001)
pIC50: −log10 of the molar value.

How the values were obtained:
[1] = target: T1, recombinant BTK (Mus musculus, UniProt P35991); assay: Recombinant BTK immune-complex kinase assay (baculovirus vector expression system); type: biochemical, murine; details: for inhibition of recombinant BTK, concentration dependence: BTK expressed in a baculovirus vector expression system; for pIC50: recombinant BTK, kinase assay (Table 1)
T1 construct: made in house; host or cells: Insect cells (Sf21, IPLB-SF21-AE) with recombinant baculovirus from pFastBac1-BTK
Description: The effects of calanolides on the enzymatic activity of the tyrosine kinase BTK in kinase assays was evaluated using recombinant BTK, according to the methods previously reported (Mahajan et al., 1999, J Biol. Chem., 274:9587-9599).
Sf21 (IPLB-SF21-AE) cells, derived from the ovarian tissue of the fall armyworm Spodotera frugiperda, were obtained from Invitrogen and maintained at 26-28° C. in Grace's insect cell medium supplemented with 10% FBS and 1.0% antibiotic/antimycotic (GIBCO-BRL). Stock cells were maintained in suspension at 0.2-1.6×10^6 /ml in 600 ml total culture volume in 1 L Bellco spinner flasks at 60-90 rpm. Cell viability was maintained at 95-100% as determined by trypan blue dye exclusion.
To construct the recombinant baculovirus containing the murine BTK gene, the gene encoding BTK was excised from pBluescript SKII^+ vector (Stratagene) by digestion with BamHI. This fragment was then ligated into pFastBac1 (Gibco-BRL). The resulting vector, pFastBac1-BTK, was used to generate the recombinant baculovirus by site-specific transposition in E. coli DH10Bac cells (Gibco-BRL), which harbor a baculovirus shuttle vector (bacmid), bMON14272. The resulting recombinant bacmid DNA was introduced into insect cells by transfection with the standard liposome-mediated method using Cellfectin reagent (Gibco-BRL). Four days later, transfection supernatants were harvested for subsequent plaque purification and analyzed.
Immunoprecipitations, immune-complex protein kinase assays, and immunoblotting using the ECL chemiluminescence detection system (Amersham Life Sciences) were conducted as described previously (Mahajan et al., 1999, J. Biol. Chem., 274:9587-9599). Following electrophoresis, kinase gels were dried onto Whatman 3M filter paper and subjected to phosphoimaging on a Molecular Imager (Bio-Rad, Hercules, Calif.) as well as autoradiography on film. Similarly, all chemiluminescent BTK Western blots were subjected to three dimesional densitometric scanning using the Molecular Imager and Imaging Densitometer using the Molecular Analyst/Macontosh version 2.1 software following the specifications of the manufacturer (Bio-Rad). For each drug concentration, a BTK kinase activity index was determined by comparing the ratios of the kinase activity in phosphorimager units (PIU) and density of the protein bands in densitometric scanning units (DSU) to those of the baseline sample and using the formula: Activity Index=[PIU of kinase band/DSU of BTK protein band]test sample :[PIU of kinase band/DSU of BTK protein band]baseline control sample. Horse radish peroxidase-conjugated sheep anti-mouse, donkey anti-rabbit secondary antibodies and ECL reagents were purchased from Amersham (Oakbrook, Ill.).

[2] = test system: RBL-2H3 mast cells; assay: β-hexosaminidase release from IgE/antigen stimulated RBL-2H3 mast cells; type: cell-based; details: 1 hour preincubation, IgE/DNP-BSA challenge 30 minutes
Description: (§1) RBL-2H3 cells were sensitized with monoclonal anti-DNP IgE antibody (0.24 mg/ml) for 1 hour at 37° C. in a 48-well tissue culture plate. RBL-2H3 cells were allowed to adhere to the plate, whereas bone marrow mast cells (BMMC) were used in suspension. Unbound IgE was removed by washing the cells with phosphate buffered saline. After washing the BMMC were re-suspended in RPMI-hepes buffer. PIPES-buffered saline containing 1 mM calcium chloride was added to the monolayers of the RBL-2H3 cells.
(§2) To study the effects of compound HI-D12, mast cells were incubated with compound HI-D12 at the indicated concentrations or vehicle for 1 hour prior to challenge. The cells were challenged with 20 ng/ml DNP-BSA for 30 minutes at 37° C. The plate was then centrifuged at 200 g for 10 minutes at 4° C. Supernatants were removed and saved. RBL-2H3 cell pellets were washed with phosphate buffered saline and solubilized in PIPES buffered saline containing 0.1% Triton X-100.
(§3) Leukotriene (LT) C4 levels were estimated in cell free supernatants by immunoassay using (LT) C4 ELISA kits obtained from Cayman Company (Ann Arbor, Mich.), according to the manufacturer instructions. β-hexosaminidase release was estimated in cell free supernatants and Triton X-100 solubilized pellets, using the method described in Ozawa et al, 1993, J. Biol. Chem., 268:1749-1756.

[3] = test system: RBL-2H3 mast cells; assay: Leukotriene C4 release from IgE/antigen stimulated RBL-2H3 mast cells (LTC4 ELISA); type: cell-based; details: 1 hour preincubation, IgE/DNP-BSA challenge 30 minutes
Description: as §1, §2, §3

[4] = test system: BALB/c mice; assay: Passive cutaneous anaphylaxis in mice (Evans blue dye extravasation); type: in vivo
Description: In order to examine the effect of HI-D12 on passive cutaneous anaphylaxis in mice, dorsal sides of the ears of BALB/c mice were injected intradermally with 20 ng of DNP-IgE (left ears) or PBS (right ears) in 20 μL volume using a 30-gauge needle, as previously described (Miyajima et. al., 1997, J. Clin. Invest. 99:901-914). After 20 hours, mice were treated with compound HI-D12 (15 or 50 mg/kg i.p.) twice at 1 hour intervals prior to the antigen challenge. Control mice were treated with an equal volume of vehicle. Thirty minutes after the last dose of compound HI-D12 or vehicle, mice were challenged with 100 μg antigen (DNP-BSA) in 200 μl 2% Evans blue dye intravenously. Mice were sacrificed by cervical dislocation 30 minutes after the antigen challenge. For quantitation of Evans blue dye extravasation as a measure of anaphylaxis-associated vascular hyperpermeability, 8 mm skin specimens were removed from the ears of mice, minced in 2 ml formamide and incubated at 80° C. for 2 hours in water bath to extract the dye. The absorbance was read at […]. The data were expressed as plasma exudation indices (i.e., times increase in optical density over PBS treated ears at 620 nm).

T1 sequence (P35991 whole entry): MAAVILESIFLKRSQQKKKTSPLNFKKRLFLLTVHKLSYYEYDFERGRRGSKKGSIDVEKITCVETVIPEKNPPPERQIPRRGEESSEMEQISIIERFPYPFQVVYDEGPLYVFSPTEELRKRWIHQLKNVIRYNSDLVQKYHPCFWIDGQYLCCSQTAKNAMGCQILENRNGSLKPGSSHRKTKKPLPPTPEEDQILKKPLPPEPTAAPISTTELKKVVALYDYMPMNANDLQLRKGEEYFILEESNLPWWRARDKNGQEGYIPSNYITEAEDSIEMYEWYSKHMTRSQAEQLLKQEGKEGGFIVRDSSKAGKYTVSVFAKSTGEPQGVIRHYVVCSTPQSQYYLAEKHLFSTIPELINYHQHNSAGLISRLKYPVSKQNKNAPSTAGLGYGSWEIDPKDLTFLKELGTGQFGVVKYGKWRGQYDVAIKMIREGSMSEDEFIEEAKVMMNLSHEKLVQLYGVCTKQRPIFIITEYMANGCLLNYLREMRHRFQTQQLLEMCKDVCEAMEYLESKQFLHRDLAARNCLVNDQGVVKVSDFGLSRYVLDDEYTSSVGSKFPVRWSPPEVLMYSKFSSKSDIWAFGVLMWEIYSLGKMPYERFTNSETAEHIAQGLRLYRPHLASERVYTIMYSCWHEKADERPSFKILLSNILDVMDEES

inhibition of recombinant BTK, concentration dependence [1]	pIC50 [1]	Structure (SMILES)	effect on release of preformed granule-associated β-hexosaminidase [2]	inhibition of LTC4 release [3]	tolerability of dose level ([4]; 50 mg/kg dose level)	inhibition of IgE/antigen induced plasma exudation ([4]; 50 mg/kg i.p., twice prior to antigen challenge) [%]
in a concentration-dependent fashion	3.96	CCCc1cc(=O)oc2c3c(c4c(c12)OC(C)(C)C=C4)O[C@H](C)[C@@H](C)C3=O (relative stereo) [HI-D86, 10,11-trans-Dihydro-6,6,10,11-tetramethyl-4-propyl-2H,6H,12H-benzo[2-b: 3,4-b':5,6-b"]tripyran-2,12-dione]				
in a concentration-dependent fashion	3.89	CCCc1cc(=O)oc2c3c(c4c(c12)OC(C)(C)C=C4)O[C@H](C)[C@@H](C)[C@@H]3O (relative stereo) [HI-D63, (±)-Calanolide A]				

Structure (SMILES)	inhibition of recombinant BTK, concentration dependence [1]	pIC50 [1]	effect on release of preformed granule-associated β-hexosaminidase [2]	inhibition of LTC4 release [3]	tolerability of dose level ([4]; 50 mg/kg dose level)	inhibition of IgE/antigen induced plasma exudation ([4]; 50 mg/kg i.p., twice prior to antigen challenge) [%]
CCCc1cc(=O)oc2c(C(=O)CC)c(O)c3c(c12)OC(C)(C)C=C3 [HI-D12, 6,6 Dimethyl-9-hydroxy-10-propionyl-4-propyl-2H,6H-benzo[1,2-b: 3,4-b']dipyran-2-one]	in a concentration-dependent fashion	4.54	did not prevent the release of preformed granule-associated β-hexosaminidase	inhibited the release of the newly synthesized arachidonic acid metabolite LTC4 in a concentration-dependent fashion	nontoxic	70
